From publication PMC10630888, “Nuclear ERK1/2 signaling potentiation enhances neuroprotection and cognition via Importinα1/KPNA2” (EMBO Molecular Medicine, 2023)
Several values for one entry are separate records, joined by “and”; a condition that tells them apart may be missing. Equal values may be shown once.

Assays:
pERK1/2 = pERK1/2 in dorsal striatum, MPTP model; assay type: in vivo, mouse
Protocol: Immunohistochemistry was performed as described in Papale et al ([2016]). Briefly, 1 h after blocking in 5% normal goat serum and 0.1% Triton X‐100 solution, free‐floating sections were incubated overnight at 4°C with one of the following primary antibodies: anti‐phospho‐p44/42 MAP kinase (Thr202/Tyr204) (1:200, Cell Signaling Technology #9101), anti‐phospho–Elk‐1 (Ser383) (1:100, Cell Signaling #9181), anti‐phospho‐Kv4.2 (Thr607)‐R (1:100, Santa Cruz sc22254‐R), anti‐phospho‐MSK‐1 (1:100 Cell Signaling Technology #9595), anti‐phospho‐MEK1/2 (Ser218/222) (1:100, sc‐7995 Santa Cruz Biotechnology), c‐Fos (1:100, sc‐52 Santa Cruz Biotechnology), tyrosine Hydroxylase (monoclonal 1:1,000, Sigma Aldrich, Italy) and anti‐DARPP‐32 (H3) (1:100, Santa Cruz Biotechnology, #sc‐271111) overnight at 4°C. […]
For in vivo immunohistochemistry experiments, images were acquired from the dorsal striatum using a Leica DM IRB microscope under a 20× objective. The number of p‐ERK, p‐MSK‐1, p‐ELK, p‐MEK‐1, p‐VG K+, c‐Fos, and DARPP‐32 positive cells was counted in 2–3 consecutive sections per mouse, bilaterally and averaged across the sections using the ImageJ software by a blind investigator to the condition. Estimation of nigral cell loss was assessed by quantifying the number of TH‐immunopositive neurons of the SNc in 360 μm‐spaced sections for each animal. […]

[1] = target: T1, ERK1/ERK2-KPNA5 interaction (Homo sapiens, UniProt O15131); experiment: Proximity ligation assay, ERK1 or ERK2 with KPNA5 in HEK293 cells; assay type: binding; conditions: HEK293 cells pretreated with RB5 50 μM for 1 h
T1 construct: host or cells: HEK293
T1 sequence (O15131 whole entry): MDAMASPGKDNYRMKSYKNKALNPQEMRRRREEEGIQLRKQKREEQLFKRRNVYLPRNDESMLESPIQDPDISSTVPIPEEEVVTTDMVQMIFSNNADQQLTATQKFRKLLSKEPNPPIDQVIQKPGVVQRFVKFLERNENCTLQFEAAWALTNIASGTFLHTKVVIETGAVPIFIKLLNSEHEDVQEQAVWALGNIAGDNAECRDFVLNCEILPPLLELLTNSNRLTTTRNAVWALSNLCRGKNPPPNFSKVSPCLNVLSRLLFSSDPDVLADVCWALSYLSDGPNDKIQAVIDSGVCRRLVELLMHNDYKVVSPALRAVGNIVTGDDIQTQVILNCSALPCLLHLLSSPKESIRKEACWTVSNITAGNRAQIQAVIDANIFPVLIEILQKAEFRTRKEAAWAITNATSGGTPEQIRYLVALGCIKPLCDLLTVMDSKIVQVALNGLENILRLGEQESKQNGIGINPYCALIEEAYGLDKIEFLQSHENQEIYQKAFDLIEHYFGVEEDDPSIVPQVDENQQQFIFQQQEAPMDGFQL
Protocol: 1.5 × 10^6 HEK293 cells were seeded onto coverslips in 60 mm dishes. 24 h later, transfection was carried out using calcium phosphate method. 0.5 μg of pCMVTNT‐T7‐KPNA1 (Addgene, #26677), 0.5 μg of pCMVTNT‐T7‐KPNA2 (Addgene, #26678), 0.5 μg of pCMVTNT‐T7‐KPNA3 (Addgene, #26679), 0.5 μg of pCMVTNT‐T7‐KPNA4 (Addgene, #26680), 0.5 μg of pCMVTNT‐T7‐KPNA5 (Addgene, #26681), 1.5 μg of pcDNA3.1+/C‐(K)‐DYK‐KPNA6 (Genscript, #OHu29951D), 0.5 μg of pCMVTNT‐T7‐KPNA7 (Addgene, #26683), 5 μg of pcDNA3.1 +/C‐(K)‐DYK‐IPO7 (Genscript, #OHu11630), 0.5 μg pCMV5‐3HA‐RanBP5 (MRC PPU, University of Dundee, #DU7262), 0.5 μg pCMV5‐3HA‐ KPNB1 (MRC PPU, University of Dundee, #DU5332) were mixed with one of the following plasmids: 0.01 μg of 277.pCCLsin.PPT.hPGK.GFP.PRE, 0.25 μg of 277.pCCLsin.PPT.hPGK.ERK1‐GFP.PRE or 0.25 μg of 277.pCCLsin.PPT.hPGK.ERK2‐GFP.PRE. After approximately 16 h, cell culture medium was replaced with fresh medium. On the following day, cells were washed three times in PBS and fixed in 4% PFA for 15 min. […]
The proximity ligation assay was carried out following the manufacturer's instructions. […] The number of GFP‐positive cells, DAPI‐stained cells, and red dots was counted manually using Fiji‐ImageJ software.

GRKKRRQRRRPPQGGGGGEPRRTEGVGPGVPGEVEMVKGQPFDV [RB5, six D-amino acids, acetylated N-terminus]
pERK1/2 in dorsal striatum of MPTP-treated animals (pERK1/2; MPTP 20 mg/kg i.p. and RB5 20 mg/kg i.p. for 4 days): further enhanced | pERK1/2 in dorsal striatum (Fig 5 panel i) (pERK1/2; MPTP model, individual animals): 320.238 and 468.254 and 523.81 and 295.238 and 784.921 and 378.571 and 564.683 and 633.333 and 362.302 and 348.413 and 268.452 and 448.016 and 342.46 and 421.429 | ERK1 or ERK2 binding to KPNA5 (PLA) [1]: unaffected
